Usually EC50 stands for the concentration giving half of the maximal effect. Low readings indicate an effect from little substance, high ones a need for much substance.

Data set [1] addresses T1, Bombyx mori EcR (VP16 fusion, CVBE switch construct) (Bombyx mori, UniProt P49881).
T1 sequence (P49881 86-606): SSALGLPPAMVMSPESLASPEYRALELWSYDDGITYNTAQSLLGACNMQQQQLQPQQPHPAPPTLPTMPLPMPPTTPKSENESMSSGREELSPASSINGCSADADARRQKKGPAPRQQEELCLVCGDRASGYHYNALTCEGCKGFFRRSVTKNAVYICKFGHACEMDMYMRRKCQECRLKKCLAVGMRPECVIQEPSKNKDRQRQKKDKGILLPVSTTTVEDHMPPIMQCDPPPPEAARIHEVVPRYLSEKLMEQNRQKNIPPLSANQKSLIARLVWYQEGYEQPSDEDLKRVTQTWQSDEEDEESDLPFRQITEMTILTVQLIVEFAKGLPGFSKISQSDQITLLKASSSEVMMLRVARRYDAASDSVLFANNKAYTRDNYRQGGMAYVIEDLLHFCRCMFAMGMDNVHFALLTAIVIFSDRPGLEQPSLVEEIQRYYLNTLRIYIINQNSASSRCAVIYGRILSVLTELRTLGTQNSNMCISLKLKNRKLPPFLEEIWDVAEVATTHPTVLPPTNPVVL
T1 sequence (P19793 1-462 partner): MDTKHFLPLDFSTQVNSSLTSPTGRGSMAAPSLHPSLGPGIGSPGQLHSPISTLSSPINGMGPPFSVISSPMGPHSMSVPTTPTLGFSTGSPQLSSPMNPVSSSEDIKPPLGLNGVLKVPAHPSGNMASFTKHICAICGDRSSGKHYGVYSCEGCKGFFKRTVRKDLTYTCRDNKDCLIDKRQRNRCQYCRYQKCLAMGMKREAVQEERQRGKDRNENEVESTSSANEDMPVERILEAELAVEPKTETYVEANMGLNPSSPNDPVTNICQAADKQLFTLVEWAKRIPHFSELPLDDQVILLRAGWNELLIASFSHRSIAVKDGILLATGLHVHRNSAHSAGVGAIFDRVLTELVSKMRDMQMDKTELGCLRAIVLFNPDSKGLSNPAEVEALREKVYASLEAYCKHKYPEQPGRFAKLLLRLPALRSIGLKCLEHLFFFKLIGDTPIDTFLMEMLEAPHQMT
Description: Z3 Assay (HEK-293 cells with CVBE and 6XEcRE LacZ, β-galactosidase reporter). As to conditions: for fold induction at 3.3 µM: HEK293, read-out: Fold Induction, Z3 Assay, 3.3 uM; for Z3 assay Rel Max FI: maximum fold induction at any concentration relative to that of GS-E ligand, HEK-293 Z3 cells.

Data set [2] can be described thus: Determination of LC Log P (experimental). Particulars: from LC retention time against log P standards; read-out: LC LogP (exp). In kind it is physicochemical. As for the experimental part:
Liquid chromatography retention times (RT) are measured for each substance using the conditions described below. A linear equation is derived relating RT to log P is developed from the data for the log P standards. The log P for the test compound is calculated from the log P/retention time equation.

As for `COc1cc(C(=O)N(NC(=O)c2ccc3c(c2C)OCCO3)C(C)(C)C)cc(OC)c1C` [RG-115637, 5-Methyl-2,3-dihydro-benzo[1,4]dioxine-6-carboxylic acid N′-tert-butyl-N′-(3,5-dimethoxy-4-methyl-benzoyl)-hydrazide], in data set [1], it took 18 nM to reach a half-maximal effect (EC50), the fold induction at 3.3 µM is 211 and the “Z3 assay Rel Max FI” value is reported as 0.947. Besides, the chromatographic logP in data set [2] came out at 3.54.

Regarding `COc1cccc(C(=O)NN(C(=O)c2cc(Cl)c(F)c(Cl)c2)C(C)(C)C)c1C` [RG-101382, N-(3-methoxy-2-methylbenzoyl)-N′-(3,5-dichloro-4-fluorobenzoyl)-N′-tert-butylhydrazine], in data set [1], the concentration for a half-maximal effect (EC50) came to 66 nM, the fold induction at 3.3 µM came to 725 and the “Z3 assay Rel Max FI” value came to 0.951. Further, the fold induction at 33 µM in data set [1] (HEK293, read-out: Fold Induction, Z3 Assay, 33 uM) was found to be 426. Besides, the chromatographic logP in data set [2] worked out at 4.4.

These data come from patent publication US9102648B1, “Bioavailable diacylhydrazine ligands for modulating the expression of exogenous genes via an ecdysone receptor complex” (Intrexon Corporation, priority 2003, dated 2015).
